Consider 3 compounds from patent US8389573B2, “Glycyrrhetinic acid derivatives” (Wellington Laboratories Inc., priority 2006, dated 2013).

The test system of series [1] is Sp1, Sp3 and Sp4 in liver. The series is described as follows: Sp protein expression in non-target tissue (liver) of treated mice. The class given is in vivo. The conditions noted are these: preliminary results. An excerpt: (i) Animal treatment: Male athymic nude mice are obtained from commercial sources and their use approved by the Institutional Animal Care and Use Committee. Ten animals are used for each treatment group and based on consultation with biostatisticians, this number is sufficient for determining statistical significance between treatment groups (41, 42). At least one AR-positive (LNCaP/22Rv1) and AR-negative (PC3/DU145) prostate cancer cell line is used in the xenograft study. Cells are harvested by exposure to trypsin and resuspended in serum-free Hanks' balanced salt solution (HBSS). […] In addition, Western blot analysis of Sp proteins, proapoptotic and antiangiogenic responses is determined on whole cell lysates from compound- and corn oil (vehicle)-treated tumors. Where possible (depending on the amount of protein extracted), the effects of the compound versus corn oil on expression of these proteins is quantitated and statistically analyzed. In addition, the effects of the compound on Sp protein expression in non-target tissue (e.g. liver and kidney) is determined. […] Immunostaining for Sp1, Sp3 and Sp4 and for angiogenic (VEGF, VEGFR1 and VEGFR2) and apoptotic (cleaved PARP, activated caspase 3, survivin and TUNEL) proteins/responses are determined as described above.

A further series concerns p21 promoter. The series is described as follows: p21 promoter construct luciferase assay in LNCaP cells. The settings on record: 10 μM PD98059. Format: cell-based.
In a further series the test system is LNCaP cells. Put plainly: Western blot analysis and DNA fragmentation assay in LNCaP cells. Format: cell-based, human. The settings on record: 2.5 μM β-CDODA-Me, 24 hr. On the procedure:
Cell Proliferation and DNA Fragmentation Assays: LNCaP prostate cancer cells (2×10^4 per well) were added to 12-well plates and allowed to attach for 24 hr. The medium was then changed to DMEM/Ham's F-12 media containing 2.5% charcoal-stripped FBS, and either vehicle (DMSO) or the indicated C-DIMs were added. Fresh medium and indicated compounds were added every 48 hr, and cells were then trypsinized and counted after 2, 4, and 6 days using a Coulter Z1 cell counter (Beckman Coulter, Fullerton, Calif.). Each experiment was done in triplicate, and results are expressed as means±S.E. for each set of three experiments. The DNA fragmentation assay was performed using a BioVision Apoptotic DNA ladder extraction kit (BioVision, Mountain View, Calif.) according to the manufacturer's protocol.
Western Blot Analysis: Cells were seeded in DMEM:Ham's F-12 media containing 2.5% charcoal-stripped FBS for 24 hr and then treated with either the vehicle (DMSO) or the indicated compounds. Cells were collected by scraping in 150 μl high salt lysis buffer (50 mM HEPES, 0.5 M NaCl, 1.5 mM MgCl2, 1 mM EGTA, 10% (v/v) glycerol, 1% (v/v) Triton-X-100 and 5 μL/ml of Protease Inhibitor Cocktail (Sigma). The lysates were incubated on ice for 1 hr with intermittent vortexing followed by centrifugation at 20,000 g for 10 min at 4° C. Before electrophoresis, samples were boiled for 3 min at 100° C.; the amount of protein was determined and 60 μg protein applied per lane. Samples were subjected to SDS-PAGE on 10% gel at 120 V for 3 to 4 hr. Proteins were transferred on to polyvinylidene difluoride membrane (PVDF; Bio-Rad, Hercules, Calif.) at 0.9 amp for 90 min at 4° C. in 1× transfer buffer (48 mM Tris-HCl, 39 mM glycine, and 0.025% SDS). The membranes were blocked for 30 min with 5% TBST-Blotto (10 mM Tris-HCl, 150 mM NaCl (pH 8.0), 0.05% Triton X-100 and 5% non-fat dry milk) and incubated in fresh 5% TBST-Blotto with primary antibody overnight with gentle shaking at 4° C. After washing with TBST for 10 min, the PVDF membrane was incubated with secondary antibody (1:5000) in 5% TBST-Blotto for 2-3 hr. The membrane was washed with TBST for 10 min and incubated with 10 ml of chemiluminescence substrate (PerkinElmer Life Sciences) for 1.0 min and exposed to ImageTeK-H medical imaging film (Eastman American X-ray Supply, Inc.).

A further series has as its system SW480 cells. Put plainly: Western blot analysis in SW480 cells. Format: cell-based, human. The settings on record: SW480, treatment for 3 days. On the procedure:
SW-480 and HT-29 (3×10^5) cells were seeded in six-well plates in DMEM/Ham's F-12 media containing 2.5% charcoal-stripped FBS for 24 h and then treated with either the vehicle (DMSO) or the indicated compounds. Whole-cell lysates were obtained using high-salt buffer [50 mM HEPES, 500 mM NaCl, 1.5 mM MgCl2, 1 mM EGTA, 10% glycerol, and 1% Triton X-100, pH 7.5, and 5 μl/ml Protease Inhibitor Cocktail (Sigma-Aldrich)]. Protein samples were incubated at 100° C. for 2 min, separated on 10% SDS-PAGE at 120 V for 3 to 4 h in 1× running buffer (25 mM Tris-base, 192 mM glycine, and 0.1% SDS, pH 8.3), and transferred to polyvinylidene difluoride membrane (PVDF; Bio-Rad, Hercules, Calif.) at […] for 16 h at 4° C. in 1× transfer buffer (48 mM Tris-HCl, 39 mM glycine, and 0.025% SDS). The PVDF membrane was blocked in 5% TBST-Blotto (10 mM Tris-HCl, 150 mM NaCl, pH 8.0, 0.05% Triton X-100, and 5% nonfat dry milk) with gentle shaking for 30 min and was incubated in fresh 5% TBST-Blotto with 1:1000 (for caveolin-1, p27, p21, cyclin D1, Grp78), 1:500 (for KLF4, NAG-1), 1:250 (for PARP), and 1:5000 (for β-actin) primary antibody overnight with gentle shaking at 4° C. After washing with TBST for 10 min, the PVDF membrane was incubated with secondary antibody (1:5000) in 5% TBST-Blotto for 90 min. The membrane was washed with TBST for 10 min, incubated with 10 ml of chemiluminescence substrate (PerkinElmer) for 1.0 min, and exposed to Kodak X-OMAT AR autoradiography film (Eastman Kodak, Rochester, N.Y.).
A general note: A western blot detects proteins with antibodies after separation by electrophoresis.

Series [2] concerns the target T1, PPARγ-coactivator interactions (Homo sapiens, UniProt P37231).
T1 construct: expressed in transfected cells; host or cells: SW480 cells, transient transfection (LipofectAMINE)
T1 sequence (P37231 238-503 limits assumed): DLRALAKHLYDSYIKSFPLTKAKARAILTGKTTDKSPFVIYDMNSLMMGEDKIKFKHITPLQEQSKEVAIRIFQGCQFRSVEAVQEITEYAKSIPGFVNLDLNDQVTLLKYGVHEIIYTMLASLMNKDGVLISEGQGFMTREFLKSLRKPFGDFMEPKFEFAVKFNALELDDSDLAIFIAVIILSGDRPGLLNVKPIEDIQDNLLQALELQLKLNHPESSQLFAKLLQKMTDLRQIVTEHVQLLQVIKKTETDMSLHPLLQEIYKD
The conditions noted are these: SW480 cells, reference (22); cited from earlier work.

Another series concerns PPARγ. The conditions noted are these: SW480 cells, previous studies (22); cited from earlier work.

Turning to `COC(=O)[C@@]1(C)CCC2(C)CC[C@]3(C)C(=CC(=O)[C@@H]4C5(C)C=C(I)C(=O)C(C)(C)[C@@H]5CCC43C)C2C1` (stereo partly drawn) [β-IDODA-Me, Methyl 2-iodo-3,11-dioxo-18β-oleana-1,12-diene-30-oate], in series [1], the “Sp1, Sp3 and Sp4 expression in liver” value is given as “unaffected”.
For the compound `COc1cccc(-c2cc(=O)c3ccccc3o2)c1N` [PD98059, reference compound], in the series on p21 promoter, the “effect on β-CDODA-Me-induced p21-luc(101) luciferase activity” value is listed as “inhibited this response”. In the series on LNCaP cells, the “effect of kinase inhibitor on induction of ATF-3 by β-CDODA-Me” value is “blocked induction”; the “effect of kinase inhibitor on induction of NAG-1 by β-CDODA-Me” value is “inhibited induction”; the “effect on β-CDODA-Me downregulation of cyclin D1 and induction of p21” value is on record as “partially blocked”.
In the case of `COC(=O)[C@]12CCC(C)(C)C[C@H]1[C@H]1C(=O)C=C3[C@@]4(C)C=C(C#N)C(=O)C(C)(C)[C@@H]4CC[C@@]3(C)[C@]1(C)CC2` [CDDO-Me], the caveolin-1 protein expression result with SW480 cells was “induce caveolin-1 protein”. In series [2], the “interactions between VP-PPARγ and GAL4-coactivator/corepressor chimeras (SRC1, SRC2, SRC3, PGC1, TRAP220, CARM1, SMRT)” value is given as “induced interactions”. The “luciferase activity with GAL4-PPARγ/GAL4-Luc” value with PPARγ was “induced luciferase activity”.
